Measured values from patent US20060252780A1, “Fused pyrimidine derivatives” (Kyowa Hakko Kogyo Co., Ltd., priority 2003, published 2006).
Counter-ions that a name gives are not always drawn.

System: Pancreatic β cell line MIN6 cells
Assay: Insulin secretion stimulating activity in cultured β cells (MIN6), insulin in the supernatant by enzyme immunoassay or radioimmunoassay
Type: cell-based
Conditions: drug concentration 1.0 μmol/L, 14.5 mmol/L glucose, 45 min after stimulation, average of 3 to 4 tests, None (no drug) 148.4
Experimental: Insulin Secretion Stimulating Activity in Cultured β Cells
Pancreatic β cell line MIN6 cells reported by Miyazaki, et al. [see Endocrinology, (1990) 127, p. […] 1139-1145]. In MIN6 cells, insulin secretion increase responding to a sulfonylurea agents, such as Glybenclamide, which are used as a therapeutic agent for diabetes (Cellular Signaling, (1993) 5, p. 777-786). Therefore, the above-mentioned culture of MIN6 cells and an insulin secretion test using the MIN6 cells were performed according to the method described in Diabetologia, (1993) 36, p. 1139-1145.
The effects of a compound on an insulin secretion activity under the presence of 14.5 mmol/L glucose was determined by measuring insulin amount in cell-culture supernatant collected as follows:
MIN6 cells cultured in a 24-well plate were washed twice with 1 mL of buffer solution A (pH 7.3) containing 2 mmol/L glucose. Buffer solution A consists of 119 mmol/L sodium chloride, 4.74 mmol/L potassium chloride, 2.54 mmol/L calcium chloride, 1.19 mmol/L magnesium sulfate, 1.19 mmol/L potassium dihydrogen phosphate, 10 mmol/L 2-[4-(2-hyroxyethyl)-1-piperazinyl]ethane sulfonic acid and 0.1% bovine serum albumin. Then, the cells were incubated in 1 mL of buffer solution A containing 2 mmol/L glucose at 37° C. for 45 minutes. After the incubation, the culture supernatant was exchanged with 0.9 mL of buffer solution A containing each test compound at various concentrations and 2 mmol/L glucose. The cells were further incubated at 37° C. for 15 minutes. Then, the MIN6 cells were stimulated with glucose by adding 0.1 mL of buffer solution A containing 127 mmol/L glucose (a final glucose concentration: 14.5 mmol/L). After the stimulation, the cells were further incubated at 37° C. for 45 minutes, and the supernatant was collected.
Antibody reactive insulin secreted in the culture supernatant was diluted with a phosphate buffer solution containing 1% bovine serum albumin, 0.1% Tween 20, 0.12% ethylenediaminetetraacetic acid (EDTA) disodium salt and 0.1% sodium azide, and then quantitatively measured by enzyme immunoassay or radioimmunoassay. The insulin levels were indicated as the amount of human insulin (ng/mLY. The results are indicated by averages (avg) and standard errors (se) of 3 to 4 tests.

SMILES	Insulin secretion content (ng/mL) ave [ng/mL]
CCCN1C(=O)N2C[C@@H](Cc3ccccc3)N=C2c2cc(-c3ccccc3)[nH]c21 [Compound 1, (R)-2-Benzyl-2,3-dihydro-8-phenyl-6-propyl-7H-imidazo[1,2-c]pyrrolo[3,2-e]pyrimidin-5(6H)-one]	204.3
CCCN1C(=O)N2C[C@@H](Cc3ccccc3)N=C2c2[nH]c(-c3ccccc3)cc21 [Compound 2, (R)-8-Benzyl-7,8-dihydro-2-phenyl-4-propyl-1H-imidazo[1,2-c]pyrrolo[2,3-e]pyrimidin-5(4H)-one]	187.1
CCCN1C(=O)N2C[C@@H](Cc3ccccc3)N=C2c2cn(-c3ccccc3)nc21 [Compound 3, (R)-2-Benzyl-2,3-dihydro-8-phenyl-6-propyl-8H-imidazo[1,2-c]pyrazolo[4,3-e]pyrimidin-5(6H)-one]	213.2
CCCN1C(=O)N2CC(Cc3ccc(F)cc3)N=C2c2cn(-c3ccccc3)nc21 (stereo not shown) [Compound 4, 2-(4-Fluorobenzyl)-2,3-dihydro-8-phenyl-6-propyl-8H-imidazo[1,2-c]pyrazolo[4,3-e]pyrimidin-5(6H)-one]	212.1
CCCN1C(=O)N2CC(Cc3ccc(Cl)cc3)N=C2c2cn(-c3ccccc3)nc21 (stereo not shown) [Compound 5, 2-(4-Chlorobenzyl)-2,3-dihydro-8-phenyl-6-propyl-8H-imidazo[1,2-c]pyrazolo[4,3-e]pyrimidin-5(6H)-one]	190.9
CCCN1C(=O)N2CC(Cc3ccncc3)N=C2c2cn(-c3ccccc3)nc21 (stereo not shown) [Compound 6, 2,3-Dihydro-8-phenyl-6-propyl-2-(4-picolyl)-8H-imidazo[1,2-c]pyrazolo[4,3-e]pyrimidin-5(6H)-one]	172.5
CCCN1C(=O)N2C[C@@H](Cc3ccccc3)N=C2c2cn(C3CCCC3)nc21 [Compound 7, (R)-2-Benzyl-8-cyclopentyl-2,3-dihydro-6-propyl-8H-imidazo[1,2-c]pyrazolo[4,3-e]pyrimidin-5(6H)-one hydrochloride]	224.8
CCCN1C(=O)N2C[C@@H](Cc3ccncc3)N=C2c2cn(C3CCCC3)nc21 [Compound 8, (R)-8-Cyclopentyl-2,3-dihydro-6-propyl-2-(4-picolyl)-8H-imidazo[1,2-c]pyrazolo[4,3-e]pyrimidin-5(6H)-one]	183.9
CCCN1C(=O)N2C[C@@H](Cc3ccccc3)N=C2c2nn(-c3ccccc3)cc21 [Compound 9, (R)-8-Benzyl-7,8-dihydro-2-phenyl-4-propyl-2H-imidazo[1,2-c]pyrazolo[3,4-e]pyrimidin-5(4H)-one]	174.3
CCCN1C(=O)N2C[C@@H](Cc3ccccc3)N=C2c2nn(C3CCCC3)cc21 [Compound 10, (R)-8-Benzyl-2-cyclopentyl-7,8-dihydro-4-propyl-2H-imidazo[1,2-c]pyrazolo[3,4-e]pyrimidin-5(4H)-one hydrochloride]	184.7
